Drawing on US20200361930A1, “BIFUNCTIONAL MOLECULES THAT DEGRADE EGFR” (Hoffmann-La Roche Inc., priority 2018, published 2020), this text covers DC50 for twelve compounds.

Molecules are shown by their SMILES.

T1 sequence (P00533 25-1210 T790M/C797S/L858R): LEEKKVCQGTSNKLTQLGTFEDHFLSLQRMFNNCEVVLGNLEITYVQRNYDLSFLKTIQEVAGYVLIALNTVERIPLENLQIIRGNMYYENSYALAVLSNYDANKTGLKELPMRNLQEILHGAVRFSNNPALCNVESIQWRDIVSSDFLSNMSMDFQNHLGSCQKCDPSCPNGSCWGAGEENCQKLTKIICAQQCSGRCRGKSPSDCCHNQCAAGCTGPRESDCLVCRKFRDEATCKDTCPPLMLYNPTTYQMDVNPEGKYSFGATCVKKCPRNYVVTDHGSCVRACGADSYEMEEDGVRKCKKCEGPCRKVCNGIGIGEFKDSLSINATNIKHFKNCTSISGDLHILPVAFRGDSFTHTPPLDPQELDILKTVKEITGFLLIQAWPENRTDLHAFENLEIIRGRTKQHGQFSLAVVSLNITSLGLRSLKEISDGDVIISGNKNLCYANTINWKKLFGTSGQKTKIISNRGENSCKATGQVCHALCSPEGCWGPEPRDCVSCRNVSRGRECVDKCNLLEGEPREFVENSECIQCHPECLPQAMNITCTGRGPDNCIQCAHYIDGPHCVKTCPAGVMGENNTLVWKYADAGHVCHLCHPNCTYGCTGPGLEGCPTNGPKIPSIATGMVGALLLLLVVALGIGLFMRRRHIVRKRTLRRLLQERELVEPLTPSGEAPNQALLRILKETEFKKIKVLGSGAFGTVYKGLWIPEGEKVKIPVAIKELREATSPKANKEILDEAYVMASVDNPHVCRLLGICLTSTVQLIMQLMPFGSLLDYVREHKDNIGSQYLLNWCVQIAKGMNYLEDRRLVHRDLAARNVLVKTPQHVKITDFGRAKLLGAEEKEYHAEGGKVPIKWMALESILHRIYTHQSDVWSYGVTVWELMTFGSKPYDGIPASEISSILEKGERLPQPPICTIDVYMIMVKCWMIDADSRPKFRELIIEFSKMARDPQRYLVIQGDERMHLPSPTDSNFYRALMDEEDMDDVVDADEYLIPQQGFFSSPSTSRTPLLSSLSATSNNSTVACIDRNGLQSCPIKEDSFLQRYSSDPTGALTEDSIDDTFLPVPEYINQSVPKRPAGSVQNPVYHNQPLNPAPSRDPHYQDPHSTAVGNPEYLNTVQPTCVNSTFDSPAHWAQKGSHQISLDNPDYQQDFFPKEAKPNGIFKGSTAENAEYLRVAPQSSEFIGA

The assay addresses T1, EGFR T790M/L858R/C797S (Homo sapiens, UniProt P00533, C797S/L858R/T790M).
T1 construct: expressed in transfected cells; host or cells: BaF3 (Ba/F3) cells, lentivirally transduced with a pCDH vector under the PGK promoter
The assay can be described thus: EGFR degradation assay (cellular), FRET quantification of total EGFR. Format: cell-based. The following applies: BaF3 EGFR T790M/L858R/C797S cells, 4 hours incubation, total EGFR FRET signal, top concentration 1 μM; read-out: IC50 value (BaF3 EGFR T790M/L858R/C797S degradation). The protocol:
EGFR Degradation Assay (Cellular)
The BaF3 parental line was purchased from DSMZ and grown in RPMI media supplemented with 10% FBS and 10 ng/mL interleukin 3 (IL-3) (Thermo Fisher Scientific). EGFR mutants (T790M/L853R, T790M/L853R/C797S) were cloned into the pCDH lentiviral vector (SystemBio) under the control of a PGK promoter and confirmed by DNA sequencing. The resulting gene expression vector for each mutant was mixed with packaging vectors and cotransfected into 2×10E6 HEK293T cells (ATCC) in 10 mL of DMEM media to generate lentiviral particles according to the manufacturers protocol (Origene).
Three days post-transfection, the viral supernatant was harvested and filtered. In one well of a 12-well plate, 0.5 mL of viral supernatant was added to 2E6 Ba/F3 cells contained in 1.5 mL of RPMI media including 10% FBS, 10 ng/mL IL-3, and 5 μg/mL polybrene (Invitrogen). The plate was centrifuged at 2,000 rpm for 1 hour at room temperature and infected cells were kept in a tissue culture incubator overnight at 37° C. The cells were washed once in fresh BaF3 media and reseeded at 0.5E6 cells/well of a 12-well plate in media supplemented with 0.5 μg/mL puromycin. The cells were maintained in this media for 3 weeks. IL-3-independent, EGFR mutant transformed cells were routinely maintained in RPMI medium supplemented with 10% FBS.
RPMI 1640 no-phenol red medium and fetal bovine serum (FBS) were purchased from Gibco (Grand Island, N.Y., USA). EGFR total kit and EGFR phospho-Y1068 kit were purchased from Cisbio (Bedford, Mass., USA). BaF3 EGFR mutant cell lines (EGFR T790M/L858R/C797S) cell line was generated in house, according to the protocol reported above. Cell culture flasks and 384-well microplates were acquired from VWR (Radnor, Pa., USA).
EGFR degradation was determined based on quantification of FRET signal using EGFR total kit. The FRET signal detected correlates with total EGFR protein level in cells. Briefly, test compounds were added to the 384-well plate from a top concentration of 1 μM with 11 points, half log titration in quadruplicates. Then, BaF3 EGFR mutant cell lines (EGFR T790M/L858R/C797S) were added into 384-well plates at a cell density of 10000 cells per well. The plates were kept at 37° C. with 5% CO2 for 4 hours. After 4-hour incubation, 4× lysis buffer was added to the cells, and then then microplate was agitated on plate shaker at 500 rpm for 30 minutes at room temperature. Next, total EGFR antibody solution was added to the cells and the cells were incubated for another 4 hours at room temperature. Finally, FRET signal was acquired on EnVision™ Multilabel Reader (PerkinElmer, Santa Clara, Calif., USA). The cells treated in the absence of the test compound were the negative control and lysis buffer with antibody solution only were the positive control.
Regarding `O=C1CCC(N2C(=O)c3cccc(NCCCCCC(=O)N4CCN(Cc5ccc(C#Cc6ccc7c(c6)C(=O)N(C(C(=O)Nc6nccs6)c6ccccc6)C7)cc5)CC4)c3C2=O)C(=O)N1` (racemic) [Example 1, (2RS)-2-[6-[2-[4-[[4-[6-[[2-[(3RS)-2,6-Dioxo-3-piperidyl]-1,3-dioxo-isoindolin-4-yl]amino]hexanoyl]piperazin-1-yl]methyl]phenyl]ethynyl]-1-oxo-isoindolin-2-yl]-2-phenyl-N-thiazol-2-yl-acetamide], the DC50 was 40 nM. As to `O=C1CCC(N2C(=O)c3cccc(NCCCC(=O)N4CCC(NC(=O)c5ccc(C#Cc6ccc7c(c6)C(=O)N(C(C(=O)Nc6nccs6)c6ccccc6)C7)cn5)CC4)c3C2=O)C(=O)N1` (racemic) [Example 2, N-[1-[4-[[2-[(3RS)-2,6-Dioxo-3-piperidyl]-1,3-dioxo-isoindolin-4-yl]amino]butanoyl]-4-piperidyl]-5-[2-[3-oxo-2-[(1RS)-2-oxo-1-phenyl-2-(thiazol-2-ylamino)ethyl]isoindolin-5-yl]ethynyl]pyridine-2-carboxamide], the DC50 was 21 nM. To `O=C1CCC(N2C(=O)c3cccc(NCCCC(=O)N4CCN(Cc5ccc(C#Cc6ccc7c(c6)C(=O)N(C(C(=O)Nc6nccs6)c6ccccc6)C7)cc5)CC4)c3C2=O)C(=O)N1` (racemic) [Example 3, (2RS)-2-[6-[2-[4-[[4-[4-[[2-[(3RS)-2,6-Dioxo-3-piperidyl]-1,3-dioxo-isoindolin-4-yl]amino]butanoyl]piperazin-1-yl]methyl]phenyl]ethynyl]-1-oxo-isoindolin-2-yl]-2-phenyl-N-thiazol-2-yl-acetamide] belongs 35 nM.

For the compound `O=C1CCC(N2C(=O)c3cccc(NCCCC(=O)N4CCN(Cc5ccc(C#Cc6ccc7c(c6)C(=O)N(C(C(=O)Nc6nccs6)c6ccccc6)C7)cn5)CC4)c3C2=O)C(=O)N1` (racemic) [Example 4, (2RS)-2-[6-[2-[6-[[4-[4-[[2-[(3RS)-2,6-Dioxo-3-piperidyl]-1,3-dioxo-isoindolin-4-yl]amino]butanoyl]piperazin-1-yl]methyl]-3-pyridyl]ethynyl]-1-oxo-isoindolin-2-yl]-2-phenyl-N-thiazol-2-yl-acetamide], the DC50 stood at 14 nM. As to `O=C1CCC(N2C(=O)c3cccc(NCC(=O)N4CCC(NC(=O)c5ccc(C#Cc6ccc7c(c6)C(=O)N(C(C(=O)Nc6nccs6)c6ccccc6)C7)cn5)CC4)c3C2=O)C(=O)N1` (racemic) [Example 5, N-[1-[2-[[2-[(3RS)-2,6-Dioxo-3-piperidyl]-1,3-dioxo-isoindolin-4-yl]amino]acetyl]-4-piperidyl]-5-[2-[3-oxo-2-[(1RS)-2-oxo-1-phenyl-2-(thiazol-2-ylamino)ethyl]isoindolin-5-yl]ethynyl]pyridine-2-carboxamide], the DC50 worked out at 18 nM. For `O=C1CCC(N2C(=O)c3cccc(NCCCCN4CCC(NC(=O)c5ccc(C#Cc6ccc7c(c6)C(=O)N(C(C(=O)Nc6nccs6)c6ccccc6)C7)cn5)CC4)c3C2=O)C(=O)N1` (racemic) [Example 6, N-[1-[4-[[2-[(3RS)-2,6-Dioxo-3-piperidyl]-1,3-dioxo-isoindolin-4-yl]amino]butyl]-4-piperidyl]-5-[2-[3-oxo-2-[(1RS)-2-oxo-1-phenyl-2-(thiazol-2-ylamino)ethyl]isoindolin-5-yl]ethynyl]pyridine-2-carboxamide] the value was 21 nM.

For `O=C1CCC(N2C(=O)c3cccc(NCCCC(=O)N4CCC(NC(=O)c5ccc(C#Cc6ccc7c(c6)C(=O)N(C(C(=O)Nc6nccs6)c6cc(F)ccc6O)C7)cn5)CC4)c3C2=O)C(=O)N1` (racemic) [Example 7, N-[1-[4-[[2-[(3RS)-2,6-Dioxo-3-piperidyl]-1,3-dioxo-isoindolin-4-yl]amino]butanoyl]-4-piperidyl]-5-[2-[2-[(1RS)-1-(5-fluoro-2-hydroxy-phenyl)-2-oxo-2-(thiazol-2-ylamino)ethyl]-3-oxo-isoindolin-5-yl]ethynyl]pyridine-2-carboxamide], the DC50 was 12 nM. Take `O=C1CCC(N2C(=O)c3cccc(NCCCCN4CCC(NC(=O)c5ncc(C#Cc6ccc7c(c6)C(=O)N(C(C(=O)Nc6nccs6)c6ccccc6)C7)cc5F)CC4)c3C2=O)C(=O)N1` (racemic) [Example 8, N-[1-[4-[[2-[(3RS)-2,6-Dioxo-3-piperidyl]-1,3-dioxo-isoindolin-4-yl]amino]butyl]-4-piperidyl]-3-fluoro-5-[2-[3-oxo-2-[(1RS)-2-oxo-1-phenyl-2-(thiazol-2-ylamino)ethyl]isoindolin-5-yl]ethynyl]pyridine-2-carboxamide]: the DC50 was 20 nM.

Take `O=C1CCC(N2C(=O)c3cccc(NCCCCN4CCC(NC(=O)c5ccc(C#Cc6ccc7c(c6)C(=O)N(C(C(=O)Nc6ccccn6)c6ccccc6)C7)cn5)CC4)c3C2=O)C(=O)N1` (racemic) [Example 9, N-[1-[4-[[2-[(3RS)-2,6-Dioxo-3-piperidyl]-1,3-dioxo-isoindolin-4-yl]amino]butyl]-4-piperidyl]-5-[2-[3-oxo-2-[(1RS)-2-oxo-1-phenyl-2-(2-pyridylamino)ethyl]isoindolin-5-yl]ethynyl]pyridine-2-carboxamide]: the DC50 came out at 52 nM.

Consider `O=C1CCC(N2C(=O)c3cccc(NCCCCN4CCC(NC(=O)c5ccc(C#Cc6ccc7c(c6)C(=O)N(C(C(=O)Nc6nccs6)c6cc(F)ccc6O)C7)cn5)CC4)c3C2=O)C(=O)N1` (racemic) [Example 10, N-[1-[4-[[2-[(3RS)-2,6-Dioxo-3-piperidyl]-1,3-dioxo-isoindolin-4-yl]amino]butyl]-4-piperidyl]-5-[2-[2-[(1RS)-1-(5-fluoro-2-hydroxy-phenyl)-2-oxo-2-(thiazol-2-ylamino)ethyl]-3-oxo-isoindolin-5-yl]ethynyl]pyridine-2-carboxamide], for which the DC50 was found to be 13 nM.

On to `O=C1CCC(N2C(=O)c3ccc(N4CCC(CN5CCC(NC(=O)c6ccc(C#Cc7ccc8c(c7)C(=O)N(C(C(=O)Nc7ccccn7)c7ccccc7)C8)cn6)CC5)CC4)cc3C2=O)C(=O)N1` (racemic) [Example 11, N-[1-[[1-[2-[(3RS)-2,6-Dioxo-3-piperidyl]-1,3-dioxo-isoindolin-5-yl]-4-piperidyl]methyl]-4-piperidyl]-5-[2-[3-oxo-2-[(1RS)-2-oxo-1-phenyl-2-(2-pyridylamino)ethyl]isoindolin-5-yl]ethynyl]pyridine-2-carboxamide], for which the DC50 worked out at 48 nM. Regarding `O=C1CCC(N2C(=O)c3cccc(N4CCC(CC(=O)N5CCN(Cc6ccc(C#Cc7ccc8c(c7)C(=O)N(C(C(=O)Nc7ccccn7)c7ccccc7)C8)cn6)CC5)CC4)c3C2=O)C(=O)N1` (racemic) [Example 12, (2RS)-2-[6-[2-[6-[[4-[2-[1-[2-[(3RS)-2,6-Dioxo-3-piperidyl]-1,3-dioxo-isoindolin-4-yl]-4-piperidyl]acetyl]piperazin-1-yl]methyl]-3-pyridyl]ethynyl]-1-oxo-isoindolin-2-yl]-2-phenyl-N-(2-pyridyl)acetamide], the DC50 worked out at 38 nM.
